Read-outs that look alike come from different tables or passages of the source.
Key:
C57BL6BYJ mice = experiment: tail suspension test; assay type: in vivo; settings: male mice
Protocol: The experiment used 112 C57BL6BYJ mice (Jackson Laboratories, Bar Harbor, Me.) which were housed in same sex groups (n=3-5) and maintained on a reversed 12 h light-dark cycle, with all testing being completed during the first 4 h of the dark phase cycle. Food and water were provided ad libitum except during behavioural testing. The subjects were six weeks old at the time of testing and consisted of groups with equal numbers of males (18-26 g) and females (15-21 g).
The substantially pure CBC extract (54.0 mg/ml in ethanol) was diluted in Tween 80 and subsequently diluted further to the correct dose with PBS (pH 7.4). The final concentration of Tween 80 was 5% for all preparations.
Imipramine (30 mg/kg) was used as an antidepressant control and diluted as per the CBC extract. Test article at doses of 0, 5, 10, 20, 40, 80 mg/kg/0.01 ml/g bodyweight were administered i.p. under sodium light to minimise exposure to light.
For the tail suspension test, a sound-attenuated chamber (Lafayette Instruments, Lafayette, Ind.) with a titanium bar (1 cm diameter×24 cn long) mounted 15 cm from the floor of the test chamber was used. An opto-electronic sensor was mounted in a 4 cm×4 cm white plastic column and positioned 5 cm from the mounting bar. An infra-red light transmitted from the light emitting diode onto the animal. If the animal moved, the amount of light collected by the phototransistor would increase or decrease depending on the size and duration of the movement. The opto-electric sensor was connected to an interface designed to condition and amplify the signal (range 0-10 volts) and then send the amplified signal to an A/D interface board (Powerlab 4/s: AD Instruments, Mountain View, Calif.) connected to a Macintosh G4 microcomputer. The duration of the experiment and the recording of raw behavioural responses was controlled and saved to a data file using Chart 3.6 data collection software (AD Instruments, Mountain View, Calif.).
On the day of testing, the mice were weighed and randomly assigned to groups with the restriction that equal numbers of males and females be represented in each group. Test article or control drug was injected intraperitoneally. Thirty minutes later each mouse was tested on the tail-suspension test for six minutes.
The mouse was suspended from a bar by the tail using adhesive tape so that the tip of their nose was 2 cm from the floor of the tail suspension chamber. The photodiode was then placed 5 cm away from the subject and aimed at the middle of the subject's ventral surface. Each subject was tested for six minutes. The total number of movements and total amount of time spent immobile were recorded. […] A period of immobility was counted only if no movements above 350 mV were recorded for at least 1000 ms. The total amount of time spent immobile was calculated by summing the duration of the individual immobility periods. These criteria were selected to be similar to those used in previous tail suspension studies (e.g., Steru et al., 1985).
Antidepressant effects are indicated by an increase in the frequency of struggling activity during the test. In addition the degree or amplitude of struggling is thought to be a predictor of antidepressant activity.
The results shown in FIGS. 2 to 7 are from the male mice only as the data obtained from the female mice were confounded by the oestrous cycle.

mice = settings: cited from earlier work
prostaglandin synthesis = settings: in vitro; cited from earlier work
rats [1] = settings: cited from earlier work
dogs = settings: cited from earlier work
monkeys or humans = settings: cited from earlier work
rat paw edema = settings: in vivo, equivalent doses; cited from earlier work
erythrocyte membrane = settings: in vitro, equivalent doses; cited from earlier work
rats [2] = settings: co-administration of CBC with THC; cited from earlier work

With `CN(C)CCCN1c2ccccc2CCc2ccccc21` [imipramine, reference compound] the “activity mean (all activity)” value (C57BL6BYJ mice; imipramine 30 mg/kg/0.01 ml/g bodyweight i.p., 30 min after dosing, 6 min test) was 733.5.
For `CCCCCc1cc(O)c2c(c1)OC(C)(C)[C@@H]1CCC(C)=C[C@@H]21` [Δ9-THC], the LD50 (mice; single intraperitoneal dose) is listed as 276.3 mg/kg and the LD50 (mice; Δ9-THC with 25 mg/kg CBC given concurrently) is listed as 152.0 mg/kg.
In the case of `CCCCCc1cc(O)cc(O)c1` [Olivetol], the “inhibition of prostaglandin synthesis” value (prostaglandin synthesis) is listed as “high activity”.
In the case of `CCCCCc1cc(O)c2c(c1)OC(C)(CCC=C(C)C)C=C2` (centres unmarked) [CBC, cannabichromene], the muscular coordination (rats [1]) is listed as “decreased muscular coordination”, the “all activity compared with imipramine” value (C57BL6BYJ mice; CBC 10 mg/kg/0.01 ml/g bodyweight i.p. vs imipramine 30 mg/kg) is listed as “comparable to those observed in the mice administered imipramine” and the “degree of struggling (percentage very large vigorous movements), mean” value (C57BL6BYJ mice; CBC 20 mg/kg/0.01 ml/g bodyweight i.p.) is listed as 31.4%. For the same compound, the “degree of struggling (percentage very large vigorous movements), mean” value (C57BL6BYJ mice; CBC 80 mg/kg/0.01 ml/g bodyweight i.p.) was 30.2%, the “number of large vigorous movements compared with imipramine” value (C57BL6BYJ mice; CBC 10 and 40 mg/kg/0.01 ml/g bodyweight i.p. vs imipramine 30 mg/kg) was “comparable number of large vigorous movements” and the “number of large vigorous movements compared with imipramine” value (C57BL6BYJ mice; CBC 20 or 80 mg/kg/0.01 ml/g bodyweight i.p. vs imipramine 30 mg/kg) was “greater number of large vigorous movements in the animals than imipramine”. The “most efficient dose for antidepressant action” value (C57BL6BYJ mice; i.p., from Fisher's PLSD of struggling) was 20 mg/kg/0.01 ml/g bodyweight, the sedation (dogs) was “causes sedation” and the “inhibition of prostaglandin synthesis” value (prostaglandin synthesis) was “less potently than THC or CBD”. For the same compound, the cannabimimetic activity (monkeys or humans) was “has not been shown to cause any cannabimimetic activity”, the “anti-inflammatory effect compared with phenylbutazone” value (rat paw edema) was “as effective as phenylbutazone (PBZ)” and the LD50 (mice; single intraperitoneal dose) was 113.4 mg/kg. For the same compound, the “anti-inflammatory effect compared with phenylbutazone” value (erythrocyte membrane) was “as effective as phenylbutazone (PBZ)”, the “effect on THC changes in heart rate” value (rats [2]) was “potentiates the THC changes in heart rate” and the “effect on THC's hypotensive effects” value (rats [2]) was “does not potentiate THC's hypotensive effects”.
In the case of `CCCCCc1cc(O)c2c(c1)OC1(C)CCC3C1C2C3(C)C` (centres unmarked) [Cannabicyclol], the “inhibition of prostaglandin synthesis” value (prostaglandin synthesis) is listed as “almost no inhibitory activity”.

Source: patent US8470874B2, “Pharmaceutical compositions comprising cannabichromene type compounds” (GW Pharma Limited, priority 2003, dated 2013)
